Measured values taken from patent US12234216B2, “Isotopologues salts, crystalline forms, stereoisomers, of methylone and ethylone and methods of use thereof” (Terran Biosciences Inc., priority 2021, dated 2025).

Assay: Metabolic stability in human liver microsomes
Type: in vitro ADME
Details: for difference in half-life and intrinsic clearance compared with the corresponding non-deuterated methylone hydrochloride: human liver microsomes; for CLint (μL/min/mg protein): human liver microsomes 0.5 mg/mL, 1 μM compound, NADPH, 0-45 min
Description: Pooled liver microsomes are purchased from a reputable commercial supplier. Microsomes are stored at […] prior to use. Microsomes (final protein concentration 0.5 mg/mL), 0.1 M phosphate buffer pH 7.4 and test compound (final substrate concentration 1 μM; final DMSO concentration 0.25%) are preincubated at 37° C. prior to the addition of NADPH (final concentration 1 mM) to initiate the reaction. A minus cofactor control incubation is included for each compound tested where 0.1 M phosphate buffer pH 7.4 is added instead of NADPH (minus NADPH). Two control compounds are included with each species. All incubations are performed singularly for each test compound. Each compound is incubated for 0, 5, 15, 30 and 45 min. The control (minus NADPH) is incubated for 45 min only. The reactions are stopped by transferring incubate into acetonitrile at the appropriate time points, in a 1:3 ratio. The termination plates are centrifuged at 3,000 rpm for 20 min at 4° C. to precipitate the protein.
From a plot of ln peak area ratio (compound peak area/internal standard peak area) against time, the gradient of the line is determined. Subsequently, half-life and intrinsic clearance are calculated using the equations below: Elimination rate constant (k)=(−gradient) Half-life (t½)(min)=0.693/k Intrinsic clearance (CLint)(μL/min/mg protein)=V×0.693/t½ where V=Incubation volume (μL)/Microsomal protein (mg)
Relevant control compounds were assessed, ensuring intrinsic clearance values fall within the specified limits (if available).

In the case of Cl.[2H]C([2H])([2H])N[C@@H](C)C(=O)c1ccc2c(c1)OC([2H])([2H])O2 [(S)-Methylone-d5 hydrochloride, (S)-1-(benzo[d][1,3]dioxol-5-yl-2,2-d2)-2-((methyl-d3)amino)propan-1-one hydrochloride], the “difference in half-life and intrinsic clearance compared with the corresponding non-deuterated methylone hydrochloride” value is reported as “most significant difference in half-life and intrinsic clearance” and the “CLint (μL/min/mg protein)” value is reported as 9.07 μL/min/mg protein.
For Cl.[2H]C([2H])([2H])N[C@H](C)C(=O)c1ccc2c(c1)OC([2H])([2H])O2 [(R)-Methylone-d5 hydrochloride, (R)-1-(benzo[d][1,3]dioxol-5-yl-2,2-d2)-2-((methyl-d3)amino)propan-1-one HCl], the “difference in half-life and intrinsic clearance compared with the corresponding non-deuterated methylone hydrochloride” value was “most significant difference in half-life and intrinsic clearance” and the “CLint (μL/min/mg protein)” value was 6.27 μL/min/mg protein.
With Cl.[2H]C([2H])([2H])N[C@@H](C)C(=O)c1ccc2c(c1)OCO2 [(S)-Methylone-d3 hydrochloride, (S)-1-(benzo[d][1,3]dioxol-5-yl)-2-((methyl-d3)amino)propan-1-one HCl] the “difference in half-life and intrinsic clearance compared with the corresponding non-deuterated methylone hydrochloride” value was “differences in half-life and intrinsic clearance” and the “CLint (μL/min/mg protein)” value was 9.60 μL/min/mg protein.
For Cl.[2H]C1([2H])Oc2ccc(C(=O)[C@@H](C)NC)cc2O1 [(R)-Methylone-d2 hydrochloride, (R)-1-(benzo[d][1,3]dioxol-5-yl-2,2-d2)-2-((methyl)amino)propan-1-one HCl], the “difference in half-life and intrinsic clearance compared with the corresponding non-deuterated methylone hydrochloride” value was “differences in half-life and intrinsic clearance”.
In the case of Cl.[2H]C([2H])([2H])N[C@H](C)C(=O)c1ccc2c(c1)OCO2 [(R)-Methylone-d3 hydrochloride, (R)-1-(benzo[d][1,3]dioxol-5-yl)-2-((methyl-d3)amino)propan-1-one HCl], the “difference in half-life and intrinsic clearance compared with the corresponding non-deuterated methylone hydrochloride” value is reported as “differences in half-life and intrinsic clearance”.
With Cl.[2H]C1([2H])Oc2ccc(C(=O)C(C)NC)cc2O1 (racemic) [(rac)-Methylone-d2 hydrochloride, 1-(benzo[d][1,3]dioxol-5-yl-2,2-d2)-2-((methyl)amino)propan-1-one HCl] the “difference in half-life and intrinsic clearance compared with the corresponding non-deuterated methylone hydrochloride” value was “differences in half-life and intrinsic clearance”.
In the case of Cl.[2H]C([2H])([2H])NC(C)C(=O)c1ccc2c(c1)OC([2H])([2H])O2 (racemic) [(rac)-Methylone-d5 hydrochloride, 1-(benzo[d][1,3]dioxol-5-yl-2,2-d2)-2-((methyl-d3)amino)propan-1-one HCl], the “difference in half-life and intrinsic clearance compared with the corresponding non-deuterated methylone hydrochloride” value is reported as “most significant difference in half-life and intrinsic clearance”.
With Cl.[2H]C1([2H])Oc2ccc(C(=O)[C@H](C)NC)cc2O1 [(S)-Methylone-d2 hydrochloride, (S)-1-(benzo[d][1,3]dioxol-5-yl-2,2-d2)-2-(methylamino)propan-1-one hydrochloride] the “difference in half-life and intrinsic clearance compared with the corresponding non-deuterated methylone hydrochloride” value was “differences in half-life and intrinsic clearance”.
